Where “and” joins values, the source holds several entries; their conditions need not be identical. Equal entries are not always repeated. Inconclusive results and toxic doses are left out.
Tested on: L1210 leukemia ip in BDF1 mice, survival T/C
Experiment: NCI In Vivo Anticancer Drug Screen. Data for tumor model L1210 Leukemia (intraperitoneal) in B6D2F1 (BDF1) mice
Conditions: endpoint: mean survival time, higher = longer survival
How it was run: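 Tumor cells were implanted, animals were treated, and survival was followed. The result divides the treated measurement by the vehicle-control measurement.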

[1] = dose: 100.0 mg/kg/injection, schedule: Q01DX001 (ip), vehicle: carboxymethylcellulose (CMC)
[2] = dose: 200.0 mg/kg/injection, schedule: Q01DX001 (ip), vehicle: carboxymethylcellulose (CMC)
[3] = dose: 400.0 mg/kg/injection, schedule: Q01DX001 (ip), vehicle: carboxymethylcellulose (CMC)
[4] = dose: 100.0 mg/kg/injection, schedule: Q04DX002 (ip), vehicle: Klucel (hydroxypropylcellulose) (HPC)
[5] = dose: 200.0 mg/kg/injection, schedule: Q04DX002 (ip), vehicle: Klucel (hydroxypropylcellulose) (HPC)
[6] = dose: 25.0 mg/kg/injection, schedule: Q01DX009 (ip), vehicle: Klucel (hydroxypropylcellulose) (HPC)
[7] = dose: 50.0 mg/kg/injection, schedule: Q01DX009 (ip), vehicle: Klucel (hydroxypropylcellulose) (HPC)
[8] = dose: 100.0 mg/kg/injection, schedule: Q01DX009 (ip), vehicle: Klucel (hydroxypropylcellulose) (HPC)
[9] = dose: 100.0 mg/kg/injection, schedule: Q04DX003 (ip), vehicle: Klucel (hydroxypropylcellulose) (HPC)
[10] = dose: 200.0 mg/kg/injection, schedule: Q01DX009 (ip), vehicle: Klucel (hydroxypropylcellulose) (HPC)
[11] = dose: 200.0 mg/kg/injection, schedule: Q04DX003 (ip), vehicle: Klucel (hydroxypropylcellulose) (HPC)
[12] = dose: 400.0 mg/kg/injection, schedule: Q01DX009 (ip), vehicle: Klucel (hydroxypropylcellulose) (HPC)
[13] = dose: 400.0 mg/kg/injection, schedule: Q04DX003 (ip), vehicle: Klucel (hydroxypropylcellulose) (HPC)
[14] = dose: 50.0 mg/kg/injection, schedule: Q01DX009 (ip), vehicle: saline
[15] = dose: 100.0 mg/kg/injection, schedule: Q01DX009 (ip), vehicle: saline
[16] = dose: 200.0 mg/kg/injection, schedule: Q01DX009 (ip), vehicle: saline
[17] = dose: 100.0 mg/kg/injection, schedule: Q01DX001 (ip), vehicle: Klucel (hydroxypropylcellulose) (HPC)

`CC1CC=C(C(=O)O)CC1` (stereo not drawn) was tested, and the T/C (dose: 50.0 mg/kg/injection, schedule: Q01DX001 (ip), vehicle: other) was 90 % of control, the T/C (dose: 100.0 mg/kg/injection, schedule: Q01DX001 (ip), vehicle: other) was 95 % of control and the T/C (dose: 200.0 mg/kg/injection, schedule: Q01DX001 (ip), vehicle: other) was 93 % of control. The T/C (dose: 400.0 mg/kg/injection, schedule: Q01DX001 (ip), vehicle: other) was 95 % of control.

For `Cc1ccc(S(=O)(=O)OCCN(CCOS(=O)(=O)c2ccc(C)cc2)c2cccc(Cl)c2)cc1`, the T/C (dose: 50.0 mg/kg/injection, schedule: Q01DX001 (ip), vehicle: carboxymethylcellulose (CMC)) was 98 % of control, the T/C [1] was 98 % of control and the T/C [2] was 109 % of control. For the same compound, the T/C [3] was 114 % of control.

In the case of `O=C(Nc1ccc(C2=NCCCN2)cc1)Nc1ccc(C2=NCCCN2)cc1`, the T/C (dose: 0.31 mg/kg/injection, schedule: Q01DX Z (ip), vehicle: saline) is reported as 94 % of control, the T/C (dose: 0.63 mg/kg/injection, schedule: Q01DX Z (ip), vehicle: saline) is reported as 110 % of control and the T/C (dose: 1.25 mg/kg/injection, schedule: Q01DX Z (ip), vehicle: saline) is reported as 114 % of control and 119 % of control. The T/C (dose: 2.5 mg/kg/injection, schedule: Q01DX Z (ip), vehicle: saline) was 114 % of control and the T/C (dose: 4.4 mg/kg/injection, schedule: Q01DX Z (ip), vehicle: saline) was 96 % of control.

`CCC(CO)N=Cc1ccccc1O.CCC(CO)N=Cc1ccccc1O.[Ni]` (stereo not drawn) was tested, and the T/C (dose: 9.5 mg/kg/injection, schedule: Q01DX001 (ip), vehicle: other) was 102 % of control, the T/C (dose: 19.0 mg/kg/injection, schedule: Q01DX001 (ip), vehicle: other) was 102 % of control and the T/C (dose: 38.0 mg/kg/injection, schedule: Q01DX001 (ip), vehicle: other) was 94 % of control. The T/C (dose: 75.0 mg/kg/injection, schedule: Q01DX001 (ip), vehicle: other) was 111 % of control.

`CC1CN=C(c2cccc(NC(=O)Nc3ccc(NC(=O)Nc4cccc(C5=NCC(C)N5)c4)cc3)c2)N1` (stereo not drawn) was tested, and the T/C (dose: 4.5 mg/kg/injection, schedule: Q01DX Z (ip), vehicle: carboxymethylcellulose (CMC)) was 118 % of control, the T/C (dose: 36.0 mg/kg/injection, schedule: Q01DX Z (ip), vehicle: carboxymethylcellulose (CMC)) was 202 % of control and 217 % of control and the T/C (dose: 45.0 mg/kg/injection, schedule: Q01DX Z (ip), vehicle: carboxymethylcellulose (CMC)) was 153 % of control. For the same compound, the T/C (dose: 62.0 mg/kg/injection, schedule: Q01DX Z (oral), vehicle: carboxymethylcellulose (CMC)) was 113 % of control, the T/C (dose: 63.0 mg/kg/injection, schedule: Q01DX Z (ip), vehicle: carboxymethylcellulose (CMC)) was 112 % of control and the T/C (dose: 72.0 mg/kg/injection, schedule: Q01DX Z (ip), vehicle: carboxymethylcellulose (CMC)) was 101 % of control and 111 % of control. For the same compound, the T/C (dose: 125.0 mg/kg/injection, schedule: Q01DX Z (oral), vehicle: carboxymethylcellulose (CMC)) was 113 % of control, the T/C (dose: 250.0 mg/kg/injection, schedule: Q01DX Z (oral), vehicle: carboxymethylcellulose (CMC)) was 115 % of control and the T/C (dose: 500.0 mg/kg/injection, schedule: Q01DX Z (oral), vehicle: carboxymethylcellulose (CMC)) was 109 % of control.

For `CCOC(=O)C1(C(=O)OCC)C(C)CC(=O)N1c1ccccc1OC` (stereo not drawn), the T/C [4] was 106 % of control, the T/C [5] was 103 % of control and the T/C (dose: 400.0 mg/kg/injection, schedule: Q04DX002 (ip), vehicle: Klucel (hydroxypropylcellulose) (HPC)) was 97 % of control.

In the case of `Clc1ccc(Cl)c(-c2csc(-c3ccncc3)n2)c1`, the T/C [6] is reported as 116 % of control, the T/C [7] is reported as 100 % of control and the T/C [8] is reported as 97 % of control and 103 % of control.

For `Cc1ccc(OCCOc2ccc(C)c(CC(Cl)(Cl)Cl)c2)cc1CC(Cl)(Cl)Cl`, the T/C (dose: 100.0 mg/kg/injection, schedule: Q01DX001 (ip), vehicle: DMSO) was 88 % of control, the T/C (dose: 200.0 mg/kg/injection, schedule: Q01DX001 (ip), vehicle: DMSO) was 89 % of control and the T/C (dose: 400.0 mg/kg/injection, schedule: Q01DX001 (ip), vehicle: DMSO) was 88 % of control.

With `NC(=O)OCC1OC(n2cnc3c(=O)[nH]c(N)nc32)C(O)C1O` (stereo not drawn) the T/C [6] was 94 % of control, the T/C [7] was 98 % of control and the T/C (dose: 100.0 mg/kg/injection, schedule: Q01DX005 (ip), vehicle: saline) was 105 % of control. For the same compound, the T/C [8] was 94 % of control and the T/C (dose: 200.0 mg/kg/injection, schedule: Q01DX005 (ip), vehicle: saline) was 92 % of control.

For `O=c1c2ccccc2[nH]c(=S)n1C1CCCCC1`, the T/C [8] was 99 % of control, the T/C [9] was 90 % of control and the T/C [10] was 103 % of control. The T/C [11] was 101 % of control, the T/C [12] was 98 % of control and the T/C [13] was 100 % of control.

With `CC(C)(CO)NC=O` (tested in a mixture with another compound) the T/C [14] was 107 % of control, the T/C [15] was 113 % of control and the T/C [16] was 113 % of control.

For `CN(C)CC1(C)CCc2c(ccc3ccccc23)C1O` (stereo not drawn), the T/C [17] was 94 % of control.

With `C=CCCC1(Cc2ccccc2)C(=O)NC(=O)NC1=O` the T/C (dose: 75.0 mg/kg/injection, schedule: Q01DX001 (ip), vehicle: saline) was 97 % of control and the T/C (dose: 150.0 mg/kg/injection, schedule: Q01DX001 (ip), vehicle: saline) was 97 % of control.

In the case of `CCCCCCCCCCCCCCCCSCCOC(=O)C1C2CCC(O2)C1C(=O)O` (stereo not drawn), the T/C (dose: 12.5 mg/kg/injection, schedule: Q01DX001 (ip), vehicle: Klucel (hydroxypropylcellulose) (HPC)) is reported as 107 % of control, the T/C (dose: 25.0 mg/kg/injection, schedule: Q01DX001 (ip), vehicle: Klucel (hydroxypropylcellulose) (HPC)) is reported as 101 % of control and the T/C (dose: 50.0 mg/kg/injection, schedule: Q01DX001 (ip), vehicle: Klucel (hydroxypropylcellulose) (HPC)) is reported as 98 % of control.

With `Nc1c(OCCc2ccccc2)cccc1C(=O)O` the T/C [17] was 97 % of control, the T/C (dose: 200.0 mg/kg/injection, schedule: Q01DX001 (ip), vehicle: Klucel (hydroxypropylcellulose) (HPC)) was 96 % of control and the T/C (dose: 400.0 mg/kg/injection, schedule: Q01DX001 (ip), vehicle: Klucel (hydroxypropylcellulose) (HPC)) was 93 % of control.

`O=C(O)CSc1cc(Cl)ccc1Cl` was tested, and the T/C (dose: 12.5 mg/kg/injection, schedule: Q01DX009 (ip), vehicle: Klucel (hydroxypropylcellulose) (HPC)) was 102 % of control, the T/C [6] was 100 % of control and the T/C [7] was 106 % of control and 121 % of control. The T/C [8] was 104 % of control and 92 % of control, the T/C [4] was 104 % of control and the T/C [10] was 105 % of control. The T/C [5] was 110 % of control.

`CC(=O)Nc1ccc(Cl)cc1C(=O)c1ccc[nH]1` was tested, and the T/C [14] was 110 % of control, the T/C [15] was 104 % of control and the T/C (dose: 100.0 mg/kg/injection, schedule: Q04DX003 (ip), vehicle: saline) was 106 % of control. For the same compound, the T/C [16] was 103 % of control, the T/C (dose: 200.0 mg/kg/injection, schedule: Q04DX003 (ip), vehicle: saline) was 108 % of control and the T/C (dose: 400.0 mg/kg/injection, schedule: Q01DX009 (ip), vehicle: saline) was 98 % of control. For the same compound, the T/C (dose: 400.0 mg/kg/injection, schedule: Q04DX003 (ip), vehicle: saline) was 93 % of control.

In the case of `O=COC1CC2CC1c1ccccc12` (stereo not drawn), the T/C (dose: 50.0 mg/kg/injection, schedule: Q01DX001 (ip), vehicle: saline) is reported as 105 % of control, the T/C (dose: 100.0 mg/kg/injection, schedule: Q01DX001 (ip), vehicle: saline) is reported as 105 % of control and the T/C (dose: 200.0 mg/kg/injection, schedule: Q01DX001 (ip), vehicle: saline) is reported as 105 % of control. For the same compound, the T/C (dose: 400.0 mg/kg/injection, schedule: Q01DX001 (ip), vehicle: saline) was 105 % of control.

In the case of `NC(=O)NOCC1NC(=O)C(CONC(N)=O)NC1=O` (stereo not drawn), the T/C [8] is reported as 93 % of control, the T/C [9] is reported as 104 % of control and the T/C [10] is reported as 102 % of control. The T/C [11] was 89 % of control, the T/C [12] was 96 % of control and the T/C [13] was 95 % of control.

For `CN(C)CCOC(=O)c1ccccc1CBr`, the T/C (dose: 25.0 mg/kg/injection, schedule: Q01DX009 (ip), vehicle: saline) was 97 % of control, the T/C [14] was 95 % of control and the T/C (dose: 75.0 mg/kg/injection, schedule: Q01DX009 (ip), vehicle: saline) was 93 % of control.

`c1ccc(C2OCCCOC2c2ccccc2)cc1` (stereo not drawn) was tested, and the T/C [1] was 97 % of control, the T/C [2] was 97 % of control and the T/C [3] was 103 % of control.

From PubChem BioAssay AID248 (DTP/NCI, 2004)
